Tests used:
Assay type in all cases: in vivo
Aphis gossypii [1] = experiment: Test Example 2: foot drench of cucumber seedling on urethane mat, Aphis gossypii; settings: soil, 168 h, 5 ml drench at foot of cucumber seedling on urethane mat, inoculated one day after treatment, checked seven days after
Experimental: The formulations of the present active compounds (4), (5), (8), (9), (11), (12), (14), (15), (17), (20), (35) to (45), (48) to (51), (54) to (56), (206), (209) and (211) to (213) obtained by Formulation Example 5 were diluted with water so that the active ingredient concentration was 500 ppm, to prepare diluted solutions for test. Separately, a cucumber seedling (second true leaf spreading stage) planted on a urethane mat was drenched at its foot with each 5 ml of the diluted solutions, and one day after treatment, the cucumber leaf surface was inoculated with 30 Aphis gossypii (whole stage). Further seven days after, the number of insect of living Aphis gossypii […] on the leaves of this cucumber was checked, and the control value was calculated according to the following formula. Control value (%)={1-(Cb×Tai)/(Cai×Tb)}×100 Letters in the formula represent the following meanings. Cb: the number of insect before treatment on non-treated district Cai: the number of insect in observation on non-treated district Tb: the number of insect before treatment on treated district Tai: the number of insect in observation on treated district

Nilaparvata lugens [2] = experiment: Test Example 7: foot drench of rice seedling, thirty first instar larvae of Nilaparvata lugens; settings: soil, 144 h, 5 ml drench at foot of rice seedling, kept 7 days, thirty first instar larvae released, further 6 days
Experimental: The formulations of the present active compounds (11), (13) to (15), (17), (23), (26), (35) to (41), (43) to (45), (48) to (51), (54), (55), (209), (211) and (212) obtained by Formulation Example 5 were diluted with water so that the active ingredient concentration was 500 ppm, to prepare diluted solutions for test. Separately, a rice seedling (2 weeks after sowing, second leaf spreading stage) planted on a plastic cup was drenched at its foot with each 5 ml of the diluted solutions, and kept in a greenhouse of 25° C. for 7 days. Thirty first instar larvae of Nilaparvata lugens were released, and further kept in the greenhouse for 6 days. The number of insect of living Nilaparvata lugens […] on rice was checked, and the control value was calculated according to the following formula. Control value (%)={1-(Cb×Tai)/(Cai×Tb)}×100 Letters in the formula represent the following meanings. Cb: the number of insect before treatment on non-treated district Cai: the number of insect in observation on non-treated district Tb: the number of insect before treatment on treated district Tai: the number of insect in observation on treated district

Aphis gossypii [3] = experiment: Test Example 4: foot drench of cucumber seedling in plastic cup, inoculation after 7 days, Aphis gossypii; settings: soil, 144 h, 5 ml drench at foot of cucumber seedling in plastic cup, kept 7 days at 25° C., inoculated, further 6 days
Experimental: The formulations of the present active compounds (3) to (7), (17), (19), (20), (22), (29) to (31), (35) to (37), (39), (41) to (45), (47) to (56), (101), (106), (121) to (123), (128), (131), (137), (139), (143), (145), (147), (211) to (213), (216) and (217) obtained by Formulation Example 5 were diluted with water so that the active ingredient concentration was 500 ppm, to prepare diluted solutions for test. Separately, a cucumber seedling (second true leaf spreading stage) planted on a plastic cup was drenched at its foot with each 5 ml of the diluted solutions, and kept in a greenhouse of 25° C. for 7 days. The cucumber leaf surface was inoculated with 30 Aphis gossypii (whole stage), and further kept in the greenhouse for 6 days, then, the number of insect of living Aphis gossypii […] on the leaves of this cucumber was checked, and the control value was calculated according to the following formula. Control value (%)={1-(Cb×Tai)/(Cai×Tb)}×100 Letters in the formula represent the following meanings. Cb: the number of insect before treatment on non-treated district Cai: the number of insect in observation on non-treated district Tb: the number of insect before treatment on treated district Tai: the number of insect in observation on treated district

Nilaparvata lugens [4] = experiment: Test Example 9: foot drench of rice seedling, twenty first instar larvae of Nilaparvata lugens; settings: soil, 144 h, 5 ml drench at foot of rice seedling, kept 7 days, twenty first instar larvae released, further 6 days
Experimental: The formulations of the present active compounds (6), (7), (18), (22), (25), (30), (33), (46), (47), (53), (101) to (103), (106), (121) to (124), (126) to (128), (135), (139), (216) and (217) obtained by Formulation Example 5 were diluted with water so that the active ingredient concentration was 500 ppm, to prepare diluted solutions for test. Separately, a rice seedling (2 weeks after sowing, second leaf spreading stage) planted on a plastic cup was drenched at its foot with each 5 ml of the diluted solutions, and kept in a greenhouse of 25° C. for 7 days. Twenty first instar larvae of Nilaparvata lugens were released, and further kept in the greenhouse for 6 days, then, the number of insect of living Nilaparvata lugens […] on rice was checked, and the control value was calculated according to the following formula. Control value (%)={1-(Cb×Tai)/(Cai×Tb)}×100 Letters in the formula represent the following meanings. Cb: the number of insect before treatment on non-treated district Cai: the number of insect in observation on non-treated district Tb: the number of insect before treatment on treated district Tai: the number of insect in observation on treated district

Bemisia tabaci = experiment: Test Example 5: spray on tomato seedling with Bemisia tabaci larvae; settings: 168 h, 10 ml/cup sprayed on tomato seedling with hatching Bemisia tabaci larvae, 7 days at 25° C.
Experimental: The formulations of the present active compounds (1) to (5), (7) to (15), (17) to (21), (25), (28) to (45), (48) to (56), (101) to (103), (106), (107), (117), (118), (121) to (145), (147) to (151), (153) to (155), (204), (206), (208), (209), (211) to (213) and (216) to (221) obtained by Formulation Example 5 were diluted with water so that the active ingredient concentration was 500 ppm, to prepare spray solutions for test. Separately, on a tomato seedling planted on a plastic cup, Bemisia tabaci adult insects were released and allowed to lay eggs for about 24 hours. The tomato seedling was kept in a greenhouse […], and the above-described spray solutions for test were sprayed at a proportion of 10 ml/cup on the condition of hatching of larvae from the laid eggs, and kept in a greenhouse of 25° C. for 7 days. The number of living larvae on the tomato leaves was checked, and the control value was calculated according to the following formula. Control value (%)={1−(Cb×Tai)/(Cai×Tb)}×100 Letters in the formula represent the following meanings. Cb: the number of insect before treatment on non-treated district Cai: the number of insect in observation on non-treated district Tb: the number of insect before treatment on treated district Tai: the number of insect in observation on treated district

Nilaparvata lugens [5] = experiment: Test Example 8: spray on rice seedling, 20 first instar larvae of Nilaparvata lugens; settings: 144 h, 10 ml sprayed on rice seedling, 20 first instar larvae released, 6 days at 25° C.
Experimental: The formulations of the present active compounds (6), (7), (18), (21), (24), (25), (28) to (30), (32), (46), (52), (101) to (103), (105) to (107), (111), (112), (115), (119) to (124), (126) to (130), (133) to (135), (139), (142), (144) to (146), (149) to (151), (153), (154), (216) and (217) obtained by Formulation Example 5 were diluted with water so that the active ingredient concentration was 500 ppm, to prepare spray solutions for test. Separately, on a rice seedling (2 weeks after sowing, second leaf spreading stage) planted on a plastic cup, the drug solutions for test prepared as described above were sprayed each in an amount of 10 ml. After drying of the drug solution sprayed on rice, 20 first instar larvae of Nilaparvata lugens were released, and kept in a greenhouse of 25° C. for 6 days. Thereafter, the number of Nilaparvata lugens […] on rice was checked, and the control value was calculated according to the following formula. Control value (%)={1-(Cb×Tai)/(Cai×Tb)}×100 Letters in the formula represent the following meanings. Cb: the number of insect before treatment on non-treated district Cai: the number of insect in observation on non-treated district Tb: the number of insect before treatment on treated district Tai: the number of insect in observation on treated district

Aphis gossypii [6] = experiment: Test Example 3: root immersion of cucumber seedling, Aphis gossypii; settings: 168 h, cucumber root part immersed in 5 ml, inoculated one day after treatment, checked seven days after
Experimental: The formulations of the present active compounds (18), (19), (21), (22), (24), (25), (28), (31) to (34), (46), (47), (52), (53), (101) to (104), (106) to (108), (112) to (114), (117), (118), (122), (123), (126), (128), (129), (133), (134), (138), (144), (153) to (155) and (157) obtained by Formulation Example 5 were diluted with water so that the active ingredient concentration was 500 ppm, to prepare diluted solutions for test. A root part of a cucumber seedling (first true leaf spreading stage) from which soil had been washed off was immersed in 5 ml of this diluted solution, and one day after treatment, the cucumber leaf surface was inoculated with 30 Aphis gossypii (whole stage). Further seven days after, the number of insect of living Aphis gossypii […] on the leaves of this cucumber was checked, and the control value was calculated according to the following formula. Control value (%)={1-(Cb×Tai)/(Cai×Tb)}×100 Letters in the formula represent the following meanings. Cb: the number of insect before treatment on non-treated district Cai: the number of insect in observation on non-treated district Tb: the number of insect before treatment on treated district Tai: the number of insect in observation on treated district

| Structure (SMILES) | pest or weed control at 500 ppm (Nilaparvata lugens [2]) | pest or weed control at 500 ppm (Bemisia tabaci) | further results |
| --- | --- | --- | --- |
| CC(C)Oc1cnccc1-c1nc2cc(C(F)(F)F)ccc2n1C [present active compound 11, 2-(3-isopropoxypyridin-4-yl)-1-methyl-5-trifluoromethyl-1H-benzimidazole] | ≥ 90% |  | pest or weed control at 500 ppm (Aphis gossypii [1]): ≥ 90% |
| CSc1cnccc1-c1nc2cc(C(F)(F)F)ccc2n1C [present active compound 17, 1-methyl-2-(3-methylthiopyridin-4-yl)-5-trifluoromethyl-1H-benzimidazole] | ≥ 90% |  | pest or weed control at 500 ppm (Aphis gossypii [1]): ≥ 90%; pest or weed control at 500 ppm (Aphis gossypii [3]): ≥ 90% |
| CC(C)Sc1cnccc1-c1nc2cc(C(F)(F)F)ccc2n1C [present active compound 23, 2-(3-isopropylthiopyridin-4-yl)-1-methyl-5-trifluoromethyl-1H-benzimidazole] | ≥ 90% |  |  |
| Cn1c(-c2cc[n+]([O-])cc2F)nc2cc(C(F)(F)F)ccc21 [present active compound 25, 2-(3-fluoro-1-oxypyridin-4-yl)-1-methyl-5-trifluoromethyl-1H-benzimidazole] |  | ≥ 90% | pest or weed control at 500 ppm (Nilaparvata lugens [4]): ≥ 90%; pest or weed control at 500 ppm (Nilaparvata lugens [5]): ≥ 90%; pest or weed control at 500 ppm (Aphis gossypii [6]): ≥ 90% |
| Cn1c(-c2ccnc(F)c2)nc2cc(C(F)(F)F)ccc21 [present active compound 26, 2-(2-fluoropyridin-4-yl)-1-methyl-5-trifluoromethyl-1H-benzimidazole] | ≥ 90% |  |  |
| Cn1c(-c2ccncc2SCC(F)(F)F)nc2cc(C(F)(F)F)cnc21 [present active compound 54, 3-methyl-2-[3-(2,2,2-trifluoroethylthio)pyridin-4-yl]-6-trifluoromethyl-3H-imidazo[4,5-b]pyridine] | ≥ 90% |  |  |
| Cn1c(-c2cc[n+]([O-])cc2)nc2cc(C(F)(F)F)cnc21 [present active compound 55, 3-methyl-2-(1-oxypyridin-4-yl)-6-trifluoromethyl-3H-imidazo[4,5-b]pyridine] | ≥ 90% |  |  |
| Cn1c(-c2ccncc2SC(C)(C)C)nc2cc(C(F)(F)F)cnc21 [present active compound 107] |  | ≥ 90% |  |
| CNS(=O)(=O)c1cnccc1-c1nc2cc(C(F)(F)F)cnc2n1C [present active compound 117] |  | ≥ 90% | pest or weed control at 500 ppm (Aphis gossypii [6]): ≥ 90% |
| Cn1c(-c2ccncc2C#N)nc2cc(C(F)(F)F)cnc21 [present active compound 118] |  | ≥ 90% | pest or weed control at 500 ppm (Aphis gossypii [6]): ≥ 90% |
| CCn1c(-c2ccncc2)nc2ccc(C(F)(F)F)cc21 [present active compound 204, 1-ethyl-2-pyridin-4-yl-6-trifluoromethyl-1H-benzimidazole] |  | ≥ 90% |  |
| C#Cc1cnccc1-c1nc2cc(C(F)(F)F)cnc2n1C [present active compound 211, 2-(3-ethynylpyridin-4-yl-)-3-methyl-6-trifluoromethyl-3H-imidazo[4,5-b]pyridine] | ≥ 90% |  |  |
| Cn1c(-c2ccncc2C(F)(F)F)nc2cc(C(F)(F)F)cnc21 [present active compound 212, 3-methyl-6-trifluoromethyl-2-(3-trifluoromethylpyridin-4-yl-)-3H-imidazo[4,5-b]pyridine] | ≥ 90% |  |  |

Reference: patent publication US8461181B2, “Fused heterocyclic compound and use thereof” (Sumitomo Chemical Company, Ltd., priority 2009, dated 2013)
